Data: ChEMBL document CHEMBL1201862, “PubChem BioAssay data set” (2004)
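Results reflect a 48-hour exposure of cells in 96-well plates to compound at five concentrations. At the GI50, growth is halved.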 Calls of active or inactive are those of the source. No stated cut-off is given here; in the data, active = GI50 up to about 1.1 µM and inactive = higher.

Columns and labels:
Assay in all cases: NCI anticancer screen, dose series, 48 h
K562 = system: K562
NCI-H226 = system: NCI-H226
786-0 = system: 786-0
SF-268 = system: SF-268
OVCAR-5 = system: OVCAR-5
SK-MEL-2 = system: SK-MEL-2
DU-145 = system: DU-145
MOLT-4 = system: MOLT-4
SK-MEL-5 = system: SK-MEL-5
Malme-3M = system: Malme-3M
HCC 2998 = system: HCC 2998
A549 = system: A549
CCRF-CEM = system: CCRF-CEM
U-251 = system: U-251
ACHN = system: ACHN
MDA-N = system: MDA-N
NCI/ADR-RES = system: NCI/ADR-RES
UO-31 = system: UO-31
Hs-578T = system: Hs-578T
M14 = system: M14
MCF7 = system: MCF7
BT-549 = system: BT-549
OVCAR-8 = system: OVCAR-8
SK-OV-3 = system: SK-OV-3
SN12C = system: SN12C
T47D = system: T47D
MDA-MB-231 = system: MDA-MB-231
PC-3 = system: PC-3
COLO 205 = system: COLO 205
HOP-62 = system: HOP-62
OVCAR-4 = system: OVCAR-4
HCT-116 = system: HCT-116
NCI-H23 = system: NCI-H23
RXF 393 = system: RXF 393
UACC-257 = system: UACC-257
LOX IMVI = system: LOX IMVI
EKVX = system: EKVX
MDA-MB-435 = system: MDA-MB-435
NCI-H460 = system: NCI-H460
SF-539 = system: SF-539
HT-29 = system: HT-29
A498 = system: A498
HCT-15 = system: HCT-15
SNB-75 = system: SNB-75
SW-620 = system: SW-620
CAKI-1 = system: CAKI-1
SR = system: SR
IGROV-1 = system: IGROV-1
SF-295 = system: SF-295
HL-60 = system: HL-60
OVCAR-3 = system: OVCAR-3
HOP-92 = system: HOP-92
NCI-H522 = system: NCI-H522
SK-MEL-28 = system: SK-MEL-28
SNB-19 = system: SNB-19
KM12 = system: KM12
UACC-62 = system: UACC-62
TK-10 = system: TK-10
RPMI-8226 = system: RPMI-8226

CC(=O)c1[nH]c(NCc2ccccc2)c(C(=S)Nc2ccccc2)c1N
GI50 (K562): 24.9 µM (inactive)
GI50 (NCI-H226): 18.2 µM (inactive)
GI50 (786-0): 17.3 µM (inactive)
GI50 (SF-268): 21.5 µM (inactive)
GI50 (OVCAR-5): 24.3 µM (inactive)
GI50 (SK-MEL-2): 0.258 µM (active)
GI50 (DU-145): 28.8 µM (inactive)
GI50 (MOLT-4): 36.7 µM (inactive)
GI50 (SK-MEL-5): 17.1 µM (inactive)
GI50 (Malme-3M): 19.7 µM (inactive)
GI50 (HCC 2998): 20.5 µM (inactive)
GI50 (A549): 27 µM (inactive)
GI50 (CCRF-CEM): 28.1 µM (inactive)
GI50 (U-251): 17.3 µM (inactive)
GI50 (ACHN): 29 µM (inactive)
GI50 (MDA-N): 18.7 µM (inactive)
GI50 (NCI/ADR-RES): 30.6 µM (inactive)
GI50 (UO-31): 0.452 µM (active)
GI50 (Hs-578T): 24 µM (inactive)
GI50 (M14): 18.9 µM (inactive)
GI50 (MCF7): 19.3 µM (inactive)
GI50 (BT-549): 23.5 µM (inactive)
GI50 (OVCAR-8): 18.6 µM (inactive)
GI50 (SK-OV-3): > 100 µM (inactive)
GI50 (SN12C): 22.5 µM (inactive)
GI50 (T47D): 22 µM (inactive)
GI50 (MDA-MB-231): 15.1 µM (inactive)
GI50 (PC-3): 39.6 µM (inactive)
GI50 (COLO 205): 28.4 µM (inactive)
GI50 (HOP-62): 19.9 µM (inactive)
GI50 (OVCAR-4): 26.4 µM (inactive)
GI50 (HCT-116): 18.4 µM (inactive)
GI50 (NCI-H23): 38.8 µM (inactive)
GI50 (RXF 393): 18.9 µM (inactive)
GI50 (UACC-257): 24.2 µM (inactive)
GI50 (LOX IMVI): 17.4 µM (inactive)
GI50 (EKVX): 27.1 µM (inactive)
GI50 (MDA-MB-435): 18.2 µM (inactive)
GI50 (NCI-H460): 22.8 µM (inactive)
GI50 (SF-539): 1.88 µM (inactive)
GI50 (HT-29): 31.3 µM (inactive)
GI50 (A498): 17.9 µM (inactive)
GI50 (HCT-15): 19.1 µM
GI50 (SNB-75): > 100 µM (inactive)
GI50 (SW-620): 32.1 µM (inactive)
GI50 (CAKI-1): 31 µM (inactive)
GI50 (SR): 28.7 µM (inactive)
GI50 (IGROV-1): 0.317 µM (active)
GI50 (SF-295): 25.6 µM (inactive)
GI50 (HL-60): 5.32 µM (inactive)
GI50 (OVCAR-3): 26.7 µM (inactive)
GI50 (HOP-92): 14.9 µM (inactive)
GI50 (NCI-H522): 0.0383 µM (active)
GI50 (SK-MEL-28): 24.2 µM (inactive)
GI50 (SNB-19): 34.3 µM (inactive)
GI50 (KM12): 17.9 µM (inactive)
GI50 (UACC-62): 16.6 µM (inactive)
GI50 (TK-10): 27.5 µM (inactive)

COC(=O)[C@@H]1C2OC(C)(C)OC2CN1C(=O)OCc1ccccc1 (stereo partly specified)
GI50 (K562): > 100 µM (inactive)
GI50 (NCI-H226): > 100 µM (inactive)
GI50 (786-0): > 100 µM (inactive)
GI50 (SF-268): > 100 µM (inactive)
GI50 (OVCAR-5): > 100 µM (inactive)
GI50 (SK-MEL-2): > 100 µM (inactive)
GI50 (DU-145): > 100 µM (inactive)
GI50 (MOLT-4): > 100 µM (inactive)
GI50 (SK-MEL-5): > 100 µM (inactive)
GI50 (Malme-3M): > 100 µM (inactive)
GI50 (HCC 2998): > 100 µM (inactive)
GI50 (A549): > 100 µM (inactive)
GI50 (U-251): > 100 µM (inactive)
GI50 (ACHN): > 100 µM (inactive)
GI50 (MDA-N): > 100 µM (inactive)
GI50 (NCI/ADR-RES): > 100 µM (inactive)
GI50 (UO-31): > 100 µM (inactive)
GI50 (Hs-578T): > 100 µM (inactive)
GI50 (M14): > 100 µM (inactive)
GI50 (MCF7): > 100 µM (inactive)
GI50 (BT-549): > 100 µM (inactive)
GI50 (OVCAR-8): > 100 µM (inactive)
GI50 (SK-OV-3): > 100 µM (inactive)
GI50 (SN12C): > 100 µM (inactive)
GI50 (T47D): > 100 µM (inactive)
GI50 (MDA-MB-231): > 100 µM (inactive)
GI50 (PC-3): > 100 µM (inactive)
GI50 (COLO 205): > 100 µM (inactive)
GI50 (RPMI-8226): > 100 µM (inactive)
GI50 (HOP-62): > 100 µM (inactive)
GI50 (OVCAR-4): > 100 µM (inactive)
GI50 (HCT-116): > 100 µM (inactive)
GI50 (NCI-H23): > 100 µM (inactive)
GI50 (RXF 393): > 100 µM (inactive)
GI50 (UACC-257): > 100 µM (inactive)
GI50 (LOX IMVI): > 100 µM (inactive)
GI50 (EKVX): > 100 µM (inactive)
GI50 (MDA-MB-435): > 100 µM (inactive)
GI50 (NCI-H460): > 100 µM (inactive)
GI50 (SF-539): > 100 µM (inactive)
GI50 (HT-29): > 100 µM (inactive)
GI50 (A498): > 100 µM (inactive)
GI50 (HCT-15): > 100 µM
GI50 (SNB-75): 4.58 µM (inactive)
GI50 (SW-620): > 100 µM (inactive)
GI50 (CAKI-1): > 100 µM (inactive)
GI50 (SR): > 100 µM (inactive)
GI50 (IGROV-1): > 100 µM (inactive)
GI50 (SF-295): > 100 µM (inactive)
GI50 (HL-60): > 100 µM (inactive)
GI50 (OVCAR-3): > 100 µM (inactive)
GI50 (HOP-92): > 100 µM (inactive)
GI50 (NCI-H522): > 100 µM (inactive)
GI50 (SK-MEL-28): > 100 µM (inactive)
GI50 (SNB-19): > 100 µM (inactive)
GI50 (KM12): > 100 µM (inactive)
GI50 (UACC-62): > 100 µM (inactive)
GI50 (TK-10): > 100 µM (inactive)
